Test system: SC-β cells
Assay: FACS analysis of marker expression in cells differentiated to SC-β cells (end of Step 6, versus DMSO control)
Type: cell-based, human
Source text: FIG. 4A is a schematic illustrating an exemplary method for generating SC-β cells according to an embodiment of the present invention, e.g., by contacting a cell population directed to differentiate to SC-β cells under conditions that promote cell clustering with an agent that decreases the level and/or activity of rho-associated protein kinase (Rock inhibitor), a TGF-β superfamily member (e.g., Activin A), and a protein kinase inhibitor (e.g., staurosporine) during the steps indicated.
The SC-β cells generated in accordance with the methods of the present invention can be used in various assays to identify novel drugs that improve β cell function, survival, or proliferation, cell therapies (e.g., for treating diabetes and/or metabolic disorders), and in the construction of artificial islets and/or an artificial pancreas.

[1] = S4 cells contacted during Step 5, cells at end of Step 6, versus control (DMSO)

## CN[C@@H]1C[C@H]2O[C@@](C)([C@@H]1OC)n1c3ccccc3c3c4c(c5c6ccccc6n2c5c31)C(=O)NC4 [staurosporine]
[1]
  endocrine population purity (FACS): near pure endocrine population
  percentage of NKX6.1+, C-Peptide+ cells (FACS): higher percentage of NKX6.1+, C-Peptide+ cells
S4 cells contacted during Step 5 together with the Rock inhibitor, in the absence of Activin A
  marker expression at differentiation stages S4, S5, S6 (FACS): maintain marker expression

Reference: patent US12123023B2, “Methods for generating stem cell-derived β cells and methods of use thereof” (President and Fellows of Harvard College, priority 2014, dated 2024)
